# Laboratory results published in patent US20190022225A1, “PROTOCOL FOR INCREASING LIFE EXPECTANCY IN A TEST SUBJECT” (Mayo Foundation for Medical Education and Research, priority 2015, published 2019).
# Entries after “also recorded” stand apart in the source; their conditions may differ.
# Assays:
# Assay type in all cases: in vivo, mouse
# INKattac mice [1] = test: Micro CT of femoral cortical bone in INKattac mice treated from 12-28 months
# Description: (§1) This example describes a method for assessing the effect of senotlytic agents or killing of senescent cells on bone structure. Two groups of INKattac mice are used for this method: mice treated from 12-28 months of age with vehicle (“old” controls) and mice treated from 12-28 months of age with AP20187. All mice used in this example were male. After sacrifice the cadavers were fixed in 10% neutral buffered formalin, and stored at 4° C.
# Mice were cleaned of excess tissue, and placed in a Bruker 1176 “Skyscanner” for micro computerized tomographic (mCT) scanning. A variety of settings were explored to visualize whole skeletons, the following settings were used in this example: 65 Kv, 385 μA, 17.58 μm, 0.5 mm Al filter, rotation step 0.5, frame averaging 6, smoothing 2, smoothing kernel 2, ring artifact correction 4, and beam hardening correction 30%. Typical acquisition consisted of a whole body scan, followed by additional scans if necessary for further data exploration.
# Reconstruction of the raw data was carried out. Subvoluming of anatomical features of interest was then further performed on the whole skeleton, using DataViewer, or CtAn software (Bruker). […]
# The average thickness of each 2 mm subvolume was measured in treated versus non-treated animals. […]
# aging mice = test: Late life muscle strength and condition (grip strength, treadmill, muscle weight, fiber area)
# Description: Grip strength was measured in untreated 12 month old mice, and in mice treated with either vehicle or AP20187 at 18 and 28 months of age.
# Muscle strength was also assessed by determining exercise duration and distance on a treadmill.
# As an additional measure of muscle condition gastrocnemius and tibialis anterior muscles, shown in FIG. 99, where dissected from senolysis treated and untreated 28 month old mice and weighed. As shown in FIGS. 100 and 101 the gastrocnemius and tibialis anterior muscles are heavier in treated mice than in untreated mice, muscle weights from untreated 18 month old mice are included to show the age related decline. Muscle fiber area of the gastrocnemius and tibialis anterior muscles was also used to assess muscle condition.
# [2] = test system: INK-ATTAC transgenic mice; test: Cardiac stress test (lethal isoproterenol) in INK-ATTAC mice treated with AP20187
# Description: To study the impact of senescent cell clearance on health and lifespan, cohorts of INK-ATTAC transgenic mice on FVB×129Sv/E×C57BL/6 mixed or C57BL/6 pure genetic backgrounds were established. At 12 months age, one half of each cohort was injected three times/week with AP20187 to induce apoptosis of p16-positive senescent cells (0.2 mg/kg and 2 mg/kg AP20187 for the mixed and the pure C57BL/6 cohorts, respectively), while the other half of each cohort received vehicle. At 18 months, subsets of male and female mice from each cohort were subjected to a cardiac stress test, in which mice were injected with a lethal dose of isoproterenol (680 mg/kg) and the time to cardiac arrest was recorded.
# Cardio-protective signaling pathways are known to provide tolerance to metabolic stresses such as ischemia and hypoxia decline (Granfeldt et al., 2009, Cardiovasc. Res. 83:234-246). […] ATP-dependent K channels (KATP) play a central role in cardio-protective signaling (Gross and Auchampach, 1992, Cardiovasc. Res. 26:1011-1016).). These KATP channels are composed of the pore-forming subunit Kir6.2/Kir6.1, the regulatory subunit Sur2a, and additional accessory proteins. […]
# [3] = test system: 3MR or INK-ATTAC mice exposed to cigarette smoke; test: Cigarette smoke exposure model (COPD), oxygen saturation; conditions: after 2 months of cigarette smoke exposure
# Description: Six week-old 3MR (n=35) or INK-ATTAC (n=35) mice were chronically exposed to cigarette smoke generated from a Teague TE-10 system, an automatically-controlled cigarette smoking machine that produces a combination of side-stream and mainstream cigarette smoke in a chamber, which is transported to a collecting and mixing chamber where varying amounts of air is mixed with the smoke mixture. […] Mice received a total of 6 hours of cigarette smoke exposure per day, 5 days a week for 6 months. Each lighted cigarette (3R4F research cigarettes containing 10.9 mg of total particulate matter (TPM), 9.4 mg of tar, and 0.726 mg of nicotine, and 11.9 mg carbon monoxide per cigarette [University of Kentucky, Lexington, Ky.]) was puffed for 2 seconds and once every minute for a total of 8 puffs, with the flow rate of 1.05 L/min, to provide a standard puff of 35 cm^3. The smoke machine was adjusted to produce a mixture of side stream smoke (89%) and mainstream smoke (11%) by smoldering 2 cigarettes at one time. The smoke chamber atmosphere was monitored for total suspended particulates (80-120 mg/m^3) and carbon monoxide (350 ppm). Beginning at day 7, (10) INK-ATTAC and (10) 3MR mice were treated with AP20187 (3×per week) or gancyclovir (5 consecutive days of treatment followed by 16 days off drug, repeated until the end of the experiment), respectively. An equal number of mice received the corresponding vehicle. The remaining 30 mice (15 INK-ATTAC and 15 3MR) were evenly split with 5 of each genetically modified strain placed into three different treatment groups. One group (n=10) received Nutlin-3A (25 mg/kg dissolved in 10% DMSO/3% Tween-20 in PBS, treated 14 days consecutively followed by 14 days off drug, repeated until the end of the experiment). One group (n=10) received ABT-263 (Navitoclax) (100 mg/kg dissolved in 15% DMSO/5% Tween-20, treated 7 days consecutively followed by 14 days off drug, repeated until the end of the experiment), and the last group (n=10) received only the vehicle used for ABT-263 (15% DMSO/5% Tween-20), following the same treatment regimen as ABT-263.
# After two months of cigarette smoke exposure, lung function was assessed by monitoring oxygen saturation using the MouseSTAT PhysioSuite pulse oximeter (Kent Scientific). Animals were anesthetized with isoflurane (1.5%) and the toe clip was applied. Mice were monitored for 30 seconds and the average peripheral capillary oxygen saturation (SpO2) measurement over this duration was calculated.
# INKattac mice [4] = test: Micro CT estimate of intervertebral disc space (IVS) in aged mice
# Description: as §1
# Intervertebral discs are type of cartilage filling the space between vertebras of the spine. They are known to decrease in function and volume with age. We estimated the intervertebral volumes between specific vertebra in spines of aged mice, with and without senolytic treatment, to determine if intervertebral disc space was maintained in aged animals through senolysis.
# While IVDs cannot be directly visualized with the micro-CT method of example 43, an image segmentation protocol was developed to infer disc volume by determining the volume between lumbar vertebra L6 and L5, L5 and L4, and L4 and L3 to estimate the intervertebral disc space (IVS) (FIG. 94).
smiles,measurement,setting,value
CC[C@H](C(=O)N1CCCC[C@H]1C(=O)O[C@H](CCc1ccc(OC)c(OC)c1)c1cccc(OCC(=O)NCC(CNC(=O)COc2cccc([C@@H](CCc3ccc(OC)c(OC)c3)OC(=O)[C@@H]3CCCCN3C(=O)[C@@H](CC)c3cc(OC)c(OC)c(OC)c3)c2)CN(C)C)c1)c1cc(OC)c(OC)c(OC)c1 [AP20187],cortical thickness of femoral bone,"INKattac mice [1]; aged mice, versus controls",increased
same,retention of cortical bone volume (BV/TV) with age,"INKattac mice [1]; male mice treated from 12-28 months, 2 mm subvolume of femur mid-diaphysis",6.1%
same,gastrocnemius and tibialis anterior muscle weight,aging mice; 28 month old mice,decreased muscle loss with age
same,exercise distance on treadmill,"aging mice; 28 months, versus vehicle",increased exercise distance; also recorded: greater distances
same,exercise duration on treadmill,"aging mice; 28 months, versus vehicle",increased duration of exercise; also recorded: exercised for longer
same,grip strength,"aging mice; 28 months, versus vehicle",increased grip strength; also recorded: decreased loss of muscle strength
same,time to cardiac arrest after lethal isoproterenol (cardio-protection),[2]; 0.2 or 2 mg/kg three times/week from 12 to 18 months,sustained youthful cardio-protection against isoproterenol
same,Sur2a expression in heart,[2]; 18-month-old female mice,sustained Sur2a expression
same,SpO2 levels versus untreated controls,[3],statistically significant increases
same,improvement of intervertebral disc space (IVS),"INKattac mice [4]; L6-L5, L5-L4, L4-L3, versus vehicle",25-33%
same,"IVS versus vehicle treated controls, significance",INKattac mice [4]; three sites in the spine,statistically significantly greater
